# Tests used:
# Assay type in all cases: cell-based, human
# Hypoxia pathway = experiment: Cignal Finder dual-luciferase pathway reporter, Hypoxia; design: key to Relative activity, Hypoxia reporter: firefly/renilla ratio, background (negative control) subtracted; conditions: for Relative activity, Hypoxia reporter: luc/Renluc relative to negative control reporter, single drug at 4 folds vs EH/Ci/Mi combination
# Experimental: (§1) The pathway analysis was performed with Qiagen's Cignal Finder Pathway Reporter Array systems according to the manufacturer's instructions. The pathway-focused dual-luciferase reporter construct was a mixture of an inducible transcription factor responsive firefly luciferase reporter and constitutively expressing renilla construct. Transcriptional response element (TRE) sequence response elements to each specific transcriptional factor triggered by the different signaling pathways are positioned before the TATA box of firefly luciferase reporter gene. The extent of activity of the reporter reflects the level of activity of the particular signaling pathway. CMV controlled renilla expression vector is co-transfected into the cell as an internal control. Non-inducible reporter construct that lacks the transcriptional factor binding sequence and could not be induced by any transcription factors is used as a negative control. Cells transfected with CMV directed firefly luciferase reporter gene serve as a positive control. Briefly, cells seeded in 6-well plates were transfected with Cignal finder pathway arrays according to the manufacturer's instructions (Qiagen). Then cells were seeded onto 96-well plates. Ci (6000 ng/mL), Mi (800 ng/mL), or EH (1000 ng/mL) and Ci/Mi/EH combination (Ci, 1500 ng/mL, Mi, 800 ng/mL and EH, 1000 ng/m L) were then added to the cells 24 h post-transfection. After 6 h of incubation with the different drugs at 37° C., cells were lysed and a dual luciferase assay (for firefly and renilla luciferase) was performed using a PromegaGloMax 20/20 illuminometer. The firefly luciferase activities were normalized over the renilla luciferase activities after background activity determined by luciferase activities of negative controls was subtracted. A triple test of cell survival under these drug doses was also performed by MTT assay following 18 h incubation at 37° C. […]
# Myc/Max pathway = experiment: Cignal Finder dual-luciferase pathway reporter, Myc/Max; conditions: for Relative activity, Myc/Max reporter: luc/Renluc relative to negative control reporter, single drug at 4 folds vs EH/Ci/Mi combination
# Experimental: as §1, with “Ci (6000 ng/mL), Mi (800 ng/mL), or EH (1000 ng/mL) and Ci/Mi/EH combination (Ci, 1500 ng/mL, Mi, 800 ng/mL and EH, 1000 ng/m L) were then added to the cells 24 h post-transfection.” left out
# UM-UC-3 = experiment: MTT cell survival / IC50, UM-UC-3 cells
# Experimental: (§2) The clinical grade of the chemotherapeutics (NCI Dictionary of Cancer Terms) was provided by the First Affiliated Hospital of Harbin Medical University: Pirarubicin (Pi, Wanle, Shenzhen), Paclitaxel (Pa, Taiji, Sichuan), Adriamycin (Ad, Pfizer, Jiangsu), Epirubicin Hydrochloride (EH, Haizheng, Zhejiang), Hydroxycamptothecin (Hy, Lishizhen, Hubei), Cisplatin (Ci, Haosen, Jiangsu), Gemcitabine (Ge, Haosen, Jiangsu) and Mitomycin (Mi, Haizheng, Zhejiang). The drug induced cell death was determined by a thiazolyl […] (MTT, 490 nm reading) based cell proliferation assay in the cultured cells following treatment by various concentrations of drugs for 72 hours. The relative chemoresistance to each drug of all cell lines was calculated with the lowest IC50 as a reference. The overall chemoresistance of each cell line was described as “chemoresistance index”, the numerator of the total relative IC50 to all the drugs over the number of drugs to rank the overall resistance state of each cell line to the six chemotherapeutics collectively.
# (§3) The relative IC50 (fold) of each drug of all nine cell lines was normalized to the lowest IC50 in the most sensitive cell line (FIG. 2G), to describe the single drug resistance of cell lines. The overall chemoresistance of each cell line, a “chemoresistance index” (the numerator of the total relative IC50 over the number of drugs) (FIG. 2G) were calculated to rank the overall resistance state of each cell line to this six chemotherapeutics.
# (§4) Twenty six-drug combinations at the indicated doses were initially generated through a random number generator (using MATLAB MathWorks©, Natick, Mass., U.S.) (The upper half of Table 1). The cell survival (% over the not drug control) of treated cells was determined and then used for a calculation of the average cumulative cell survival (%, ACS: the sum of cell survival (%) per combination divided by the number of cell lines tested). ACS<30% was used to separate the effective from the not-effective combinations.
# MAPK/ERK pathway = experiment: Cignal Finder dual-luciferase pathway reporter, MAPK/ERK; conditions: for Relative activity, MAPK/ERK reporter: luc/Renluc relative to negative control reporter, single drug at 4 folds vs EH/Ci/Mi combination
# Experimental: as §1
# T24 = experiment: MTT cell survival / IC50, T24 cells
# Experimental: as §2, §3, §4
compound,measurement,setting,value
"COC12C(COC(N)=O)C3=C(C(=O)C(C)=C(N)C3=O)N1CC1NC12 (stereo not shown) [Mi, [6-Amino-8a-methoxy-5-methyl-4,7-dioxo-1,1a,2,4,7,8,8a,8b-octahydroazireno [2′,3′:3,4]pyrrolo[1,2-a]indol-8-yl]methyl carbamate]","relative drug trigged pathway activity over the no-drug level, Hypoxia",Hypoxia pathway; 5637 cells,3.31 fold
same,"Relative activity, Hypoxia reporter",Hypoxia pathway; 5637 cells,75.18
same,"relative drug trigged pathway activity over the no-drug level, Hypoxia",Hypoxia pathway; Biu87 cells,3.56 fold
same,"Relative activity, Hypoxia reporter",Hypoxia pathway; Biu87 cells,26.99
same,"digitalized pathway activity, Hypoxia",Hypoxia pathway; H-bc cells,0 (null (0) if neither of the above holds)
same,"relative drug trigged pathway activity over the no-drug level, Hypoxia",Hypoxia pathway; H-bc cells,0.58 fold
same,"Relative activity, Hypoxia reporter",Hypoxia pathway; H-bc cells,20.08
same,"relative drug trigged pathway activity over the no-drug level, Hypoxia",Hypoxia pathway; SV-HUC-1 cells,2.08 fold
same,"Relative activity, Hypoxia reporter",Hypoxia pathway; SV-HUC-1 cells,52.50
same,"digitalized pathway activity, Hypoxia",Hypoxia pathway; UM-UC-3 cells,0 (null (0) if neither of the above holds)
same,"Relative activity, Hypoxia reporter",Hypoxia pathway; UM-UC-3 cells,45.95
same,"relative drug trigged pathway activity over the no-drug level, Hypoxia",Hypoxia pathway; Um-Uc-3 cells,0.73 fold
same,"relative drug trigged pathway activity over the no-drug level, Myc/Max",Myc/Max pathway; 5637 cells,1.97 fold
same,"Relative activity, Myc/Max reporter",Myc/Max pathway; 5637 cells,21.77
same,"digitalized pathway activity, Myc/Max",Myc/Max pathway; Biu87 cells,0 (null (0) if neither of the above holds)
same,"relative drug trigged pathway activity over the no-drug level, Myc/Max",Myc/Max pathway; Biu87 cells,1.16 fold
same,"Relative activity, Myc/Max reporter",Myc/Max pathway; Biu87 cells,9.49
same,"digitalized pathway activity, Myc/Max",Myc/Max pathway; H-bc cells,0 (null (0) if neither of the above holds)
same,"relative drug trigged pathway activity over the no-drug level, Myc/Max",Myc/Max pathway; H-bc cells,0.75 fold
same,"Relative activity, Myc/Max reporter",Myc/Max pathway; H-bc cells,9.86
same,"digitalized pathway activity, Myc/Max",Myc/Max pathway; SV-HUC-1 cells,0 (null (0) if neither of the above holds)
same,"relative drug trigged pathway activity over the no-drug level, Myc/Max",Myc/Max pathway; SV-HUC-1 cells,1.45 fold
same,"Relative activity, Myc/Max reporter",Myc/Max pathway; SV-HUC-1 cells,160.00
same,"Relative activity, Myc/Max reporter",Myc/Max pathway; UM-UC-3 cells,22.41
same,"relative drug trigged pathway activity over the no-drug level, Myc/Max",Myc/Max pathway; Um-Uc-3 cells,0.38 fold
same,Cell survival (%),"UM-UC-3; UM-UC-3, Table S3, ng/ml: Pi 40, Pa 160, EH 250, Ci 1500, Mi 200, 1=Ci/Mi, 2=EH/Ci/Mi, 3=Pa/Ci/Mi, 4=Pi/Ci/Mi",66.2%
same,Single drug 4X Cell Survival (%),"UM-UC-3; UM-UC-3, ng/ml: EH 1000, Ci 6000, Mi 800, Pi 160, Pa 640, Ge 20, EH/Ci/Mi regimen",54.74%
same,ACS (%),"UM-UC-3; UM-UC-3 cells, Table 4 (B)",54.71%
same,Cell survival 72 hours,"UM-UC-3; Um-Uc-3 cells, Table 4 (A)",54.71%
same,"relative drug trigged pathway activity over the no-drug level, MAPK/ERK",MAPK/ERK pathway; 5637 cells,3.73 fold
same,"Relative activity, MAPK/ERK reporter",MAPK/ERK pathway; 5637 cells,194.59
same,"relative drug trigged pathway activity over the no-drug level, MAPK/ERK",MAPK/ERK pathway; Biu87 cells,2.04 fold
same,"Relative activity, MAPK/ERK reporter",MAPK/ERK pathway; Biu87 cells,1001.57
same,"relative drug trigged pathway activity over the no-drug level, MAPK/ERK",MAPK/ERK pathway; H-bc cells,0.45 fold
same,"Relative activity, MAPK/ERK reporter",MAPK/ERK pathway; H-bc cells,59.07
same,"digitalized pathway activity, MAPK/ERK",MAPK/ERK pathway; SV-HUC-1 cells,0 (null (0) if neither of the above holds)
same,"relative drug trigged pathway activity over the no-drug level, MAPK/ERK",MAPK/ERK pathway; SV-HUC-1 cells,1.42 fold
same,"Relative activity, MAPK/ERK reporter",MAPK/ERK pathway; SV-HUC-1 cells,335.00
same,"digitalized pathway activity, MAPK/ERK",MAPK/ERK pathway; UM-UC-3 cells,0 (null (0) if neither of the above holds)
same,"Relative activity, MAPK/ERK reporter",MAPK/ERK pathway; UM-UC-3 cells,151.35
same,"relative drug trigged pathway activity over the no-drug level, MAPK/ERK",MAPK/ERK pathway; Um-Uc-3 cells,1.06 fold
same,Cell survival (%),"T24; Table S3, ng/ml: Pi 40, Pa 160, EH 250, Ci 1500, Mi 200, 1=Ci/Mi, 2=EH/Ci/Mi, 3=Pa/Ci/Mi, 4=Pi/Ci/Mi",51.34%
same,Single drug 4X Cell Survival (%),"T24; ng/ml: EH 1000, Ci 6000, Mi 800, Pi 160, Pa 640, Ge 20, EH/Ci/Mi regimen",19.72%

# — patent US10238688B2, “Combination therapies for bladder cancer” (GENEDIA BIOTECH CO. LTD., priority 2015, dated 2019)
